Measurements as given in patent publication US20230303547A1, “N-CYANOPYRROLIDINES WITH ACTIVITY AS USP30 INHIBITORS” (MISSION THERAPEUTICS LIMITED, priority 2020, published 2023).
In brackets after ≈: the same amount, converted by molar mass.

Key:
[1] = Turbidimetric solubility; type: physicochemical; conditions: aqueous buffer, kinetic from dmso stock
Excerpt: The solubility of a compound is an important factor in achieving a desired concentration of drug in systemic circulation for the anticipated pharmacological response. Low aqueous solubility is a problem encountered with formulation development of new chemical entities and to be absorbed a drug must be present in the form of solution at the site of absorption. The kinetic solubility of a compound may be measured using a turbidimetric solubility assay, the data from which may also be used in conjunction with Caco-2 permeability data to predict dose dependent human intestinal absorption.
Turbidimetric solubility: Test compound solution prepared in DMSO diluted into aqueous buffer. Turbidimetry is used as the end-point by measuring absorbance at 620 nm.

[2] = Hepatocyte Cl mouse; type: in vitro ADME; conditions: mouse hepatocytes
Procedure: Hep Cl mouse: in vitro hepatocyte clearance in mouse cells.
(§1) Clu: in vitro clearance. Clu as defined here is the scaled clearance, in turn calculated from the intrinsic clearance. The intrinsic clearance is the predicted clearance due to hepatic metabolic reactions, determined from incubation of a compound in a hepatocyte preparation.

[3] = target: Cathepsin K (Homo sapiens (Human), UniProt P43235); assay: Cathepsin K IC50; type: biochemical
Sequence of Cathepsin K (P43235 115-329, species assumed): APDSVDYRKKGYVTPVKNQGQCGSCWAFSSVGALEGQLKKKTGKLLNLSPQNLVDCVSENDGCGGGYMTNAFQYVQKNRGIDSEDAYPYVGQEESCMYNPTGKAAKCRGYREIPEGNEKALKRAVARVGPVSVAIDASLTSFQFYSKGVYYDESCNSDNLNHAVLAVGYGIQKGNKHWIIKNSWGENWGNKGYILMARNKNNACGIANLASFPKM

[4] = PK mouse 10 mg/kg po; type: in vivo; conditions: for Unbound plasma Cmax/TOM20-Ub cell potency: 10 mg/kg po dose - mouse; for Oral F: mouse, 10 mg/kg
Excerpt: Oral F: Oral bioavailability.

[5] = test system: HCT116 human colorectal carcinoma cells; assay: In vitro cytotoxicity (Cell Tox), alamarBlue; type: cell-based; conditions: 96-hour continual compound exposure
Excerpt: There is also a need for compounds that have a favourable safety profile, which may be measured by a variety of standard in vitro and in vivo methods. A cell toxicity counter-screen may be used to assay the anti-proliferative/cytotoxic effect in a particular cell line (e.g. HCT116) by fluorometric detection of rezasurin (alamarBlue™) to resofurin in response to mitochondrial activity.
In Vitro Cytotoxicity (Cell Tox): Measured in HCT116 human colorectal carcinoma cells using alamarBlue™ as the assay endpoint. Compound cytotoxicity was measured over a period of 96-hour continual compound exposure.

[6] = test system: TOM20 ubiquitylation; assay: TOM20-ubiquitylation assay; type: cell-based, human
Excerpt: (§2) USP30 is a transmembrane protein located in the outer membrane of mitochondria, which are energy-producing organelles present inside cells. […] The USP30 cellular western blot (WB) assay described herein aims to test the activity of compounds against USP30 in cells using an irreversible activity probe to monitor USP30 activity. Analogously to the cellular western blot assay, target engagement assessment (ex vivo) may be carried out in either brain or kidney tissue samples from compound-dosed animals. To extend target binding knowledge to downstream pharmacodynamics, assessment of TOM20 (an outer mitochondrial membrane protein) ubiquitylation may be made.
Human cell lines can be challenged with mitochondrial depolarizing agents (ionophores (eg. CCCP, valinomycin), mitochondrial complex inhibitors (oligomycin, antimycin A)) to induce ubiquitylation of TOM20, which is then further promoted in the presence of USP30 inhibitors. TOM20 ubiquitylation is subsequently assessed through western blotting of the cell lysates, with TOM20 ubiquitylation adduct detection possible due to an 8 kDa molecule weight increase for each molecule of ubiquitin added, resulting in laddering of a TOM20 immunoreactive band. TOM20-ubiquitylation levels can be quantified using chemiluminescence densitometry of laddered immunoreactive bands.

[7] = Log D; type: physicochemical; conditions: pH 7.4; read-out: Log D measured at pH 7.4
Excerpt: log D: distribution co-efficient; lipophilicity measurement.

[8] = target: Endogenous USP30 (Homo sapiens (Human), UniProt Q70CQ3); assay: USP30 endogenous cellular target engagement assay (Cell TE WB); type: cell-based; conditions: Hela cells stably overexpressing YFP-Parkin, 1 hour
Sequence of Endogenous USP30 (Q70CQ3 whole entry): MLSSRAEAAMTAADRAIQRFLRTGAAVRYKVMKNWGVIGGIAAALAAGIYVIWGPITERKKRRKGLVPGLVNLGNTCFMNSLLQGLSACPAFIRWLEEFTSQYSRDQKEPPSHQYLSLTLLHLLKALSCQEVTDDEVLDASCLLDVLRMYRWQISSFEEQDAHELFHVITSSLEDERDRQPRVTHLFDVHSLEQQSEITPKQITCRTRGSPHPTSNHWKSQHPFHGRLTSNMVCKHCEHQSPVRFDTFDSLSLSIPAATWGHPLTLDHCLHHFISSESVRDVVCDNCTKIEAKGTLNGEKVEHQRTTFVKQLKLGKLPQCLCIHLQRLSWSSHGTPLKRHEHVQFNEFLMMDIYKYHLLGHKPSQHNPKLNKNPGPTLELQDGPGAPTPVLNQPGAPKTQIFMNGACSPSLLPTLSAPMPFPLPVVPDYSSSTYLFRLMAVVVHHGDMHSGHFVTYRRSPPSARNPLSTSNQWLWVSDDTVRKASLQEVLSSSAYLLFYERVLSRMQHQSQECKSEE
Excerpt: as §2
Hela cells stably overexpressing YFP-Parkin were seeded into 6 well dishes. Once adhered, cells were treated with appropriate concentrations of test compounds or vehicle control for 1 hour at 37° C., 5% CO2. […] USP30 was detected using an anti-USP30 Sheep S746D antibody (MRC PPU Reagents and Services) and a rabbit anti sheep secondary IgG (H+L) horseradish peroxidase conjugated (Thermo #31480) and visualised using ECL reagent (GE #RPN2109) on a GE LAS4000 imager. Target engagement was measured by quantitation of the bands corresponding to USP30 and USP30 bound to the Ub-VME probe and expression of this proportion compared to vehicle treated control.

[9] = target: Cathepsin S (Homo sapiens (Human), UniProt P25774); assay: Cathepsin S IC50; type: biochemical
Sequence of Cathepsin S (P25774 115-331, species assumed): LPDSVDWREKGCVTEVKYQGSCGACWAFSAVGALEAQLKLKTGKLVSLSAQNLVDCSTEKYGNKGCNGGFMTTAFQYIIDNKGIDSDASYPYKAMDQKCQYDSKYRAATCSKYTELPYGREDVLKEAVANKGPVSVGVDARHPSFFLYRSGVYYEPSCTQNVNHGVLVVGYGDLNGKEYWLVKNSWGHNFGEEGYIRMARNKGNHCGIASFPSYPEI

[10] = target: Cathepsin L (Homo sapiens (Human), UniProt P07711); assay: Cathepsin L IC50; type: biochemical
Sequence of Cathepsin L (P07711 114-333, species assumed): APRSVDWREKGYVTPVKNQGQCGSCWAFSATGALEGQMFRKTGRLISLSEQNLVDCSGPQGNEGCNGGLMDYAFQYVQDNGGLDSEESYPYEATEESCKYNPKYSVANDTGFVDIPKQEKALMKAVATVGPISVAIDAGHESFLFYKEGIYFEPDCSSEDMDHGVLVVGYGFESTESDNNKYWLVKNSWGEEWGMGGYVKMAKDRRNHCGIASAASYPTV

[11] = Hepatocyte Cl human; type: in vitro ADME; conditions: human hepatocytes
Procedure: Hep Cl human: in vitro hepatocyte clearance in human cells.
as §1

[12] = Brain homogenate free fraction by equilibrium dialysis; type: in vitro ADME; conditions: mouse brain homogenate; read-out: Binding Mouse Brain fu,br
Excerpt: Brain fu,br: The free fraction of a compound in brain homogenate preparation determined by in vitro equilibrium dialysis.

[13] = target: UCHL1 (Homo sapiens (Human), UniProt P09936); assay: UCHL1 DUB IC50; type: biochemical
Sequence of UCHL1 (P09936 whole entry, species assumed): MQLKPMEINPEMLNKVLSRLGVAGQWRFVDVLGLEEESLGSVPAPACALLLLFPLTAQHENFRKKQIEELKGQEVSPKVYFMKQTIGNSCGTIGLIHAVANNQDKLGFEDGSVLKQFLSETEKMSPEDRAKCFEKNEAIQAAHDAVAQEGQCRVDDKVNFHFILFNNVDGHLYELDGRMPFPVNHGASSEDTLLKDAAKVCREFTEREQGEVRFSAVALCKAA

[14] = Mouse plasma stability; type: in vitro ADME; conditions: read-out: Stability Mouse plasma t½
Excerpt: Other parameters that may be measured using standard assays that are indicative of a compound’s exposure profile include, for example plasma stability (half-life measurement), blood AUC, Cmax, Cmin and Tmax values.

[15] = target: Cathepsin B (Homo sapiens (Human), UniProt P07858); assay: Cathepsin B IC50; type: biochemical
[16] = PK mouse 2 mg/kg iv; type: in vivo; conditions: for Kp uu: brain and plasma (unbound), 2 mg/kg IV dose - mouse; for clearance: plasma, mouse, 2 mg/kg iv, read-out: Cl plasma
Excerpt: Cl in vivo clearance: Pharmacokinetic measurement of the volume of plasma (or any matrix) from which a substance is completely removed per unit time.
Kpuu is the ratio of unbound drug in brain to unbound drug in plasma and may be indicative of potential for treating peripheral and/or CNS indications.

Row | SMILES | solubility [1] [µM] | Hepatocyte Cl mouse Scaled Clu [2] [mL/min/kg] | IC50 [3] [µM] | Unbound plasma Cmax/TOM20-Ub cell potency [4] | Oral F [4] [%] | EC50 ([5]; Homo sapiens, HCT-116, 96 h) [µM] | TOM20-Ub 1.5-fold gain, Antimycin A/oligomycin mitophagy trigger EC1.5x [6] [µM] | logD [7] | EC50 [8] [nM] | IC50 [9] [µM] | IC50 [10] [µM] | Hepatocyte Cl human Scaled Clu [11] [mL/min/kg] | fraction unbound [12] | IC50 [13] [µM] | half-life [14] [min] | IC50 [15] [µM] | Kp uu [16] | clearance [16] [mL/min/kg] | EC50 [5] [µM]
1 | C[C@@H]1C[C@@H](NC(=O)c2ncc(-c3cc(C#N)ccc3OC3CC3)o2)CN1C#N [Example 1, 5-(5-cyano-2-cyclopropoxyphenyl)-N-((3R,5R)-1-cyano-5-methylpyrrolidin-3-yl)oxazole-2-carboxamide] | 65 (≈ 24.5 µg/mL) | 117 | 10.5 | 45 | 37 | 23.8 | 0.006 | 2.5 | 2 | 54.4 | 9.9 | 18.6 | 0.06 | > 300 | > 120 | 107 | 0.02 | 41 | 
2 | COC[C@@H]1C[C@@H](NC(=O)c2ncc(-c3cc(C#N)ccc3OC3CC3)o2)CN1C#N [Example 2, 5-(5-cyano-2-cyclopropoxyphenyl)-N-((3R,5S)-1-cyano-5-(methoxymethyl)pyrrolidin-3-yl)oxazole-2-carboxamide] | > 100 | 105 | 18.9 | 140 | 47 | 27.1 | 0.007 | 2.2 | 3 | 91.2 | 23.6 | 5.0 | 0.2 | > 300 | > 120 | > 300 | 0.01 | 20 | > 30
